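The concentration for 50% growth inhibition is given as GI50. At the TGI there is no net growth.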
Key:
Experiment in all cases: NCI anticancer screen, dose series, 384-well format
[1] = tested on: SK-MEL-5 melanoma
[2] = tested on: RXF 393 renal
[3] = tested on: CAKI-1 renal
[4] = tested on: HOP-92 NSCLC
[5] = tested on: IGROV1 ovarian
[6] = tested on: NCI-H460 NSCLC
[7] = tested on: SN12C renal
[8] = tested on: UACC-62 melanoma
[9] = tested on: SW-620 colon
[10] = tested on: NCI-H522 lung
[11] = tested on: HL-60(TB) leukemia
[12] = tested on: KM12 colon
[13] = tested on: ACHN renal
[14] = tested on: PC-3 prostate
[15] = tested on: OVCAR-3 ovarian
[16] = tested on: T-47D breast
[17] = tested on: 786-0 renal
[18] = tested on: OVCAR-8 ovarian
[19] = tested on: HCT-116 colon
[20] = tested on: A549 NSCLC
[21] = tested on: BT-549 breast
[22] = tested on: SNB-75 CNS
[23] = tested on: NCI-H226 lung
[24] = tested on: U251 glioblastoma
[25] = tested on: HOP-62 NSCLC
[26] = tested on: CCRF-CEM leukemia
[27] = tested on: MCF7 breast
[28] = tested on: EKVX NSCLC
[29] = tested on: COLO 205 colon
[30] = tested on: UACC-257 melanoma
[31] = tested on: HCC-2998 colon
[32] = tested on: MDA-MB-435 melanoma
[33] = tested on: HT29 colon
[34] = tested on: NCI-H322M lung
[35] = tested on: HS 578T breast
[36] = tested on: SNB-19 CNS
[37] = tested on: MDA-MB-468 breast
[38] = tested on: TK-10 renal
[39] = tested on: SF-268 CNS
[40] = tested on: UO-31 renal
[41] = tested on: OVCAR-5 ovarian
[42] = tested on: OVCAR-4 ovarian
[43] = tested on: SF-539 CNS
[44] = tested on: MDA-MB-231 breast
[45] = tested on: NCI/ADR-RES ovarian
[46] = tested on: MALME-3M melanoma
[47] = tested on: NCI-H23 lung
[48] = tested on: MOLT-4 leukemia
[49] = tested on: M14 melanoma
[50] = tested on: SF-295 CNS
[51] = tested on: RPMI-8226 leukemia
[52] = tested on: LOX IMVI melanoma
[53] = tested on: HCT-15 colon
[54] = tested on: SK-MEL-28 melanoma
[55] = tested on: DU-145 prostate
[56] = tested on: A498 renal
[57] = tested on: SK-OV-3 ovarian

Which results are given for `C[C@H]1Oc2cc(cnc2N)-c2c(nn(C)c2C#N)CN(C)C(=O)c2ccc(F)cc21`?
GI50 [1]: 50.2 µM; TGI [1]: > 100 µM; GI50 [2]: 11.6 µM; TGI [2]: > 63.1 µM; GI50 [3]: 26.5 µM; TGI [3]: > 100 µM; GI50 [4]: 11 µM; TGI [4]: 67.6 µM; GI50 [5]: 26.1 µM; TGI [5]: > 83.6 µM; GI50 [6]: 35.7 µM; TGI [6]: > 100 µM; GI50 [7]: 61.6 µM; TGI [7]: > 100 µM; GI50 [8]: 32.8 µM; TGI [8]: > 100 µM; GI50 [9]: > 100 µM; TGI [9]: > 100 µM; GI50 [10]: 33.7 µM; TGI [10]: 99.5 µM; GI50 [11]: 63.8 µM; TGI [11]: > 100 µM; GI50 [12]: 0.364 µM; TGI [12]: > 100 µM; GI50 [13]: 11.4 µM; TGI [13]: > 24.9 µM; GI50 [14]: > 100 µM; TGI [14]: > 100 µM; GI50 [15]: > 88 µM; TGI [15]: > 100 µM; GI50 [16]: 57.2 µM; TGI [16]: > 100 µM; GI50 [17]: 49.7 µM; TGI [17]: > 100 µM; GI50 [18]: > 100 µM; TGI [18]: > 100 µM; GI50 [19]: 32.1 µM; TGI [19]: > 100 µM; GI50 [20]: 22 µM; TGI [20]: > 100 µM; GI50 [21]: > 100 µM; TGI [21]: > 100 µM; GI50 [22]: 34.4 µM; TGI [22]: > 84.7 µM; GI50 [23]: 23 µM; TGI [23]: > 73.1 µM; GI50 [24]: > 100 µM; TGI [24]: > 100 µM; GI50 [25]: 15.7 µM; TGI [25]: > 100 µM; GI50 [26]: 57.1 µM; TGI [26]: > 100 µM; GI50 [27]: 17.5 µM; TGI [27]: > 100 µM; GI50 [28]: 9.26 µM; TGI [28]: 44.1 µM; GI50 [29]: 11.1 µM; TGI [29]: > 84.1 µM; GI50 [30]: > 100 µM; TGI [30]: > 100 µM; GI50 [31]: > 100 µM; TGI [31]: > 100 µM; GI50 [32]: > 100 µM; TGI [32]: > 100 µM; GI50 [33]: 18 µM; TGI [33]: > 100 µM; GI50 [34]: 23.6 µM; TGI [34]: > 78.6 µM; GI50 [35]: 19.9 µM; TGI [35]: > 100 µM; GI50 [36]: > 100 µM; TGI [36]: > 100 µM; GI50 [37]: 23.8 µM; TGI [37]: > 86.2 µM; GI50 [38]: > 92.9 µM; TGI [38]: > 100 µM; GI50 [39]: 47.3 µM; TGI [39]: > 100 µM; GI50 [40]: 37.3 µM; TGI [40]: > 54 µM; GI50 [41]: 37.7 µM; TGI [41]: > 100 µM; GI50 [42]: > 100 µM; TGI [42]: > 100 µM; GI50 [43]: > 100 µM; TGI [43]: > 100 µM; GI50 [44]: 14.6 µM; TGI [44]: 84.5 µM; GI50 [45]: 41.6 µM; TGI [45]: > 100 µM; GI50 [46]: 26.2 µM; TGI [46]: > 100 µM; GI50 [47]: 24.3 µM; TGI [47]: > 100 µM; GI50 [48]: 4.84 µM; TGI [48]: 18.8 µM; GI50 [49]: 56.3 µM; TGI [49]: > 100 µM; GI50 [50]: 72.8 µM; TGI [50]: > 100 µM; GI50 [51]: 57 µM; TGI [51]: > 100 µM; GI50 [52]: > 71.9 µM; TGI [52]: > 100 µM; GI50 [53]: 91.9 µM; TGI [53]: > 100 µM; GI50 [54]: > 79.1 µM; TGI [54]: > 100 µM; GI50 [55]: 49.8 µM; TGI [55]: > 100 µM; GI50 [56]: > 95.6 µM; TGI [56]: > 100 µM; GI50 [57]: 68.2 µM; TGI [57]: > 100 µM

What does the source list for `O=C(c1c(F)ccc(NS(=O)(=O)N2CC[C@@H](F)C2)c1F)c1c[nH]c2ncc(-c3cnc(C4CC4)nc3)cc12`?
GI50 [3]: 3.09 µM; TGI [3]: 9.22 µM; GI50 [4]: 4.13 µM; TGI [4]: 25.1 µM; GI50 [5]: 3.08 µM; TGI [5]: 13.5 µM; GI50 [7]: 7.66 µM; TGI [7]: > 100 µM; GI50 [8]: < 0.01 µM; TGI [8]: 0.0116 µM; GI50 [12]: 6.17 µM; TGI [12]: 18.8 µM; GI50 [13]: 4.77 µM; TGI [13]: 20.7 µM; GI50 [17]: 5.62 µM; TGI [17]: 29.7 µM; GI50 [22]: 5.65 µM; TGI [22]: 17.9 µM; GI50 [23]: 5.36 µM; TGI [23]: 18 µM; GI50 [25]: 5.2 µM; TGI [25]: 20.6 µM; GI50 [28]: 8.14 µM; TGI [28]: 21.6 µM; GI50 [29]: < 0.01 µM; TGI [29]: 0.021 µM; GI50 [30]: < 0.01 µM; TGI [30]: 0.0246 µM; GI50 [33]: 0.015 µM; TGI [33]: 14.5 µM; GI50 [38]: 11.8 µM; TGI [38]: 35.4 µM; GI50 [40]: 8.46 µM; TGI [40]: 23.5 µM; GI50 [41]: 8.29 µM; TGI [41]: 27.7 µM; GI50 [42]: 11.2 µM; TGI [42]: 27.6 µM; GI50 [45]: 19 µM; TGI [45]: 41.3 µM; GI50 [46]: < 0.01 µM; GI50 [47]: 4 µM; TGI [47]: 15.3 µM; GI50 [49]: < 0.01 µM; TGI [49]: 0.0149 µM; GI50 [50]: 5.27 µM; TGI [50]: 19.8 µM; GI50 [52]: 0.0301 µM; TGI [52]: 4.13 µM; GI50 [53]: 4.8 µM; TGI [53]: 20.9 µM; GI50 [54]: < 0.01 µM; TGI [54]: 0.0127 µM; GI50 [55]: 4.58 µM; TGI [55]: 17.7 µM; GI50 [56]: 6.38 µM; TGI [56]: 24.3 µM

From PubChem BioAssay (NCI)
